Results: patent US20190330189A1, “ANTIBACTERIAL COMPOUNDS” (Janssen Sciences Ireland UC, priority 2015, published 2019)
In brackets after ≈: the same amount, converted by molar mass. Where two headings read alike, the source gives them in different places.

What was measured:
[1] = system: Mycobacterium tuberculosis strain EH 4.0 (361.269); experiment: Test 4: MIC determination, resazurin fluorescence, strain EH 4.0; type: cell-based; conditions: Mycobacterium tuberculosis, read-out: pIC50, Test 4, M. tuberculosis strain EH 4.0 (361.269) (converted)
Procedure, shortened: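 M. tuberculosis EH 4.0 (361.269) from stationary-phase culture, ~5×10^5 CFU/well in 7H9 medium with compound dilutions. Incubated 7 days at 37 °C, then resazurin added; MIC from fluorescence.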

[2] = system: Mycobacterium tuberculosis strain H37Rv; experiment: Test 1: MIC determination, resazurin fluorescence, M. tuberculosis H37Rv; type: cell-based; conditions: Mycobacterium tuberculosis, H37RV
M. tuberculosis H37Rv = conditions: strain M. tuberculosis H37Rv, inside macrophages; cited from earlier work
[3] = system: replicating and non-replicating bacteria; conditions: cited from earlier work
[4] = Test 1, M. tuberculosis H37Rv, first test, read-out: pIC50 (converted)
[5] = Test 1, repeated (2nd) test, read-out: pIC50 * (converted)
[6] = Test 1, repeated (3rd) test, read-out: pIC50 ** (converted)

Row | Structure (SMILES) | IC50 [1] [nM] | IC50 [2, 4] [nM] | melting point [°C] | IC50 [2, 5] [nM] | IC50 [2, 6] [nM] | MIC50 (M. tuberculosis H37Rv) [nM] | activity against replicating and non-replicating bacteria [3]
1 | CCc1nc2ccc(Cl)cn2c1C(=O)NCc1ccc(N2CC3(C2)CN(c2ccc(OC(F)(F)F)cc2)C3)cc1 [Compound 4] | 5.01 | 120 | 184.57 | – | – | – | –
2 | CCc1nc2ncc(Cl)cn2c1C(=O)NCc1ccc(N2CC3(C2)CN(c2ccc(OC(F)(F)F)cc2)C3)cc1 [Compound 5] | 31.6 | 69.2 | 242.43 | 74.1 | 74.1 | – | –
3 | CCc1nc2sc(C)cn2c1C(=O)NCc1ccc(N2CC3(CCC3)C2)cc1 [Compound 12] | 31.6 | 129 | 300 | 70.8 | 107 | – | –
4 | CCc1nn2ccccc2c1C(=O)NCc1ccc(C2CC3(C2)CN(c2ccc(S(F)(F)(F)(F)F)cc2)C3)cc1 [Compound 159] | 39.8 | – | 177.08 | – | – | – | –
5 | Cc1nn2ccccc2c1C(=O)NCc1ccc(C2CC3(C2)CN(c2ccc(S(F)(F)(F)(F)F)cc2)C3)cc1 [Compound 160] | 31.6 | – | 166.29 | – | – | – | –
6 | CCc1nn2ccccc2c1C(=O)NCc1ccc(N2CC3(CC(c4ccc(OC(F)(F)F)cc4)C3)C2)cc1 [Compound 161] | 2510 | – | 126.57 | – | – | – | –
7 | Cc1nn2ccccc2c1C(=O)NCc1ccc(N2CC3(C2)CN(c2ccc(S(F)(F)(F)(F)F)cc2)C3)cc1 [Compound 162] | 7940 | – | 238.06 | – | – | – | –
8 | CCc1nc2ccc(Cl)cn2c1C(=O)NCc1ccc(N2CC3(CCC3)C2)cc1 [Compound 163] | 7940 | – | 142.39 | – | – | – | –
9 | CCc1nc2ccc(Cl)cn2c1C(=O)NCC1CC2(C1)CN(c1ccc(OC(F)(F)F)cc1)C2 [Compound 164] | 7940 | – | 165.12 | – | – | – | –
10 | CCc1nn2ccccc2c1C(=O)NCC1CC2(C1)CN(c1ccc(OC(F)(F)F)cc1)C2 [Compound 165] | 7940 | – | 150.69 | – | – | – | –
11 | CCc1nc2ccc(Cl)cn2c1C(=O)NCc1ccc(N2CCC(c3ccc(OC(F)(F)F)cc3)CC2)cc1 [Compound Q203, Q203] | – | – | – | – | – | 0.28 (≈ 0.156 ng/mL) | highly active
